Test results taken from US20210238136A1, “AZETIDINE DERIVATIVE, AND PRODRUG THEREOF” (DAIICHI SANKYO COMPANY, LIMITED, priority 2018, published 2021).

Key:
[1] = Pharmacokinetic test of prodrug compounds in mouse; type: in vivo, females, non-fasting); settings: female, C57BL/6J; mouse plasma, IV 1 mg/kg of the active compound; read-out: AUClast after IV administration
Procedure: For prodrug compounds, the compounds of Examples 44, 103, and 104 (active compound of these is the compound of Example 41) and the compounds of Examples 89, 94, and 97 (active compound of these is the compound of Example 42), the plasma concentrations of the active compounds after oral administration to mice were measured, and various PK parameters were calculated. The method was as follows:
To C57BL/6J mice (females, non-fasting), the Example compounds were administered and blood sampling was performed under the following conditions.
Intravenous (IV): 1 mg/kg (n=2, 10% HP-β-CD dissolved in Saline/DMSO=95/5, v/v) Oral (PO): 10 mg/kg (n=2, 0.5% HPC dissolved in water)
After blood sampling, plasma was obtained by centrifugation, and to 10 μL of the obtained plasma, an equal amount of DMSO was added. […] The obtained samples were measured and quantitatively analyzed using MassLynx (version 4.1, Waters Corporation) under the following conditions.
From the plasma concentration measurements of the obtained active compound, the following PK parameters were calculated using Moment (Microsoft Excel).
AUClast: Area under plasma concentration-time curve to the last quantifiable time point Cmax: Maximum plasma concentration

[2] = test system: activated T cells (CD4+ T cells from mouse spleen); assay: 3H-thymidine uptake in activated T cells; type: cell-based, mouse (C57BL/6J); settings: T-cell; mouse spleen CD4+ T cells activated with Dynabeads Mouse T-Activator CD3/CD28; read-out: IC50 (3H-thymidine uptake, proliferation of activated T cells)
Procedure: Effect of Test Substance on ^3H-Thymidine Uptake in Activated T Cells
The effect of test substance on ^3H-thymidine uptake by activation was evaluated using T cells from mouse spleen. The spleen was removed from euthanized C57BL/6J mice, and finely sliced, then triturated on a cell strainer (40 μm mesh), and cells were collected by centrifugation. The collected splenocytes were treated with Cold lyser containing 0.17 M NH4Cl for 5 minutes to hemolytically remove red blood cells and then washed. The resulting cells were used as the splenocytes. From the splenocytes, CD4+ T cells were isolated using an EasySep Mouse CD4+ T cell isolation kit (STEMCELL Technologies Inc.). The CD4+ T cells were seeded into 96-well round-bottom plates. To the plates, test substance or Vehicle was added, and Dynabeads Mouse T-Activator CD3/CD28 (Thermo Fisher Scientific Inc.) was added, then the cells were cultured at 37° C. under 5% CO2. After 24 hours of culture, ^3H-Thymidine (PerkinElmer Inc.) diluted with medium was added to each well, then the cells were further cultured at 37° C. under 5% CO2 overnight. To measure ^3H-Thymidine uptake into the nuclei of the cells, the cells were collected into filter plates UniFilter-96 GF/B (PerkinElmer Inc.) using a FilterMate Universal Harvester (PerkinElmer Inc.). The filter plates were placed in a dryer and left still for 2 hours or more. Then, scintillation cocktail MicroScint-O (PerkinElmer Inc.) was added to the plates, and radioactivity was measured with TopCount NXT (PerkinElmer Inc.). With the radioactivity of the test substance-free group set as 100% and the radioactivity of the non-activation group as 0%, the relative value (proliferation rate, % of vehicle) of the radioactivity of each well to which test substance was added was calculated. The value of % of vehicle was incorporated into analysis software Prism (Version 5.0, GraphPad Software), the “Nonlinear Regression Log (inhibitor) vs Reaction Variable Inclination” was selected, and then sigmoid fitting with restrictions of Bottom=0 and Top=100 was performed to calculate 50% inhibitory concentration (IC50).

[3] = test system: IFN-α production in mouse splenocytes (pDC activation by CpG-ODN D35); assay: IFN-α production in mouse splenocytes stimulated with TLR9 ligand CpG-ODN D35; type: cell-based, mouse (C57BL/6J); settings: for IC50: Splenocyte, mouse splenocytes, CpG-ODN D35 1 μM, 24 hours of culture, ELISA; for effect on IFN-α production: test substances added at 1 nM to 300 nM
Procedure: The test substances were added at concentrations of 1 nM to 300 nM.
Effect of Test Substance on IFN-α Production in Mouse Splenocytes
Production of IFN-α by TLR9 ligand CpG-ODN D35 stimulation activating pDC was evaluated. Splenocytes were prepared from euthanized C57BL/6J mice in the same way as Test Example 1. Splenocytes were seeded into 96-well round-bottom plates, and test substance was added, and then the plates were preincubated for 30 minutes. Then, CpG-ODN D35 (final concentration 1 μM) was added, and the cells were cultured at 37° C. under 5% CO2. After 24 hours of culture, the culture supernatant was collected, and the IFN-α concentration in the supernatant was measured with an ELISA kit (Mouse IFN-alpha Platinum ELISA Kit, eBioscience). The relative value of the IFN-α concentration of each well when the IFN-α production of the test substance-free group was set as 100% and the amount of the non-stimulated group as 0% (IFN-α production rate, % of vehicle) was calculated. The relative value of the IFN-α concentration was incorporated into analysis software Prism (Version 5.0, GraphPad Software), the “Nonlinear Regression Log (inhibitor) vs Reaction Variable Inclination” was selected for each compound, and then sigmoid fitting with restrictions of Bottom=0 and Top=100 was performed to create a graph of the concentration reaction curve and calculate 50% inhibitory concentration (IC50).

[4] = test system: mouse acute GVHD model; assay: Mouse acute GVHD model, IFN-γ concentration in plasma; type: in vivo, mouse (BDF1 host, C57BL/6N donor); settings: oral, twice daily from Day 0, plasma on Day 7, significant relative to the Vehicle group
Procedure: FIG. 2 is a graph showing the effect of the compound of Example 89 in mouse acute GVHD models. The compound of Example 89 was orally administered at 1.5, 5, 15, or 50 mg/kg, BID. The vertical axis is the concentration of interferon gamma (sometimes abbreviated herein as IFN-γ or IFN-g) in blood on day 7 after elicitation in the model.
Effect of Test Substance in Mouse Acute GVHD Model
A mouse acute graft-versus-host disease (GVHD) model was generated in accordance with a previous report (Puliaev R et al. Differential requirement for IFN-gamma in CTL maturation in acute murine graft-versus-host disease. J Immunol. 173, 910-9 (2004)). Splenocytes were prepared from euthanized donor mice (C57BL/6N), suspended in PBS without hemolysis of erythrocytes, and administered to host mice, BDF1 mice, from the tail vein (the number of transfer cells was adjusted to be 7 to 8×10^7 cells/0.2 mL/mouse in every test, and matched between individuals within the same test). In the Normal group, 0.2 mL of PBS was administered in place of the cells. The test substance was crushed in an agate mortar, and then suspended in a 0.5% hydroxypropyl cellulose (HPC) solution to prepare a dosage solution. In the Vehicle group, 0.5% HPC was used as a dosage solution. To the host mice, the dosage solution was forcibly orally administered (0.2 mL/mouse) twice daily with a feeding needle from the morning of Day 0 (cell transfer) to the end of the experiment. The tail vein was cut without anesthesia on Day 7 and a small amount of blood was collected with a hematocrit tube (EDTA). Plasma was collected by centrifugation and IFN-γ concentration in plasma was measured with an αLISA kit (Mouse IFN-γ alphaLISA, PerkinElimer, AL501C). […] For the difference between the Normal group and the Vehicle group, comparison between two groups was performed by Student's t-test. The difference between the Vehicle group and the test substance administration group was analyzed by a parametric multiple-comparison test, Dunnett test.

[5] = test system: NZB/W F1 mice; assay: Survival of NZB/W F1 mice that naturally develop SLE-like symptoms and nephritis; type: in vivo, mouse (NZB/W F1); settings: oral from the age of 12 weeks; Example 44 at 30, 100 mg/kg BID; MMF 60 mg/kg QD; Vehicle survival rate 35%
Procedure: FIG. 4 is a graph showing the effect of the compound of Example 44 in NZB/W F1 mice that naturally develop SLE-like symptoms and nephritis. To NZB/W F1 mice, the compound of Example 44 was orally administered at 30, 100 mg/kg, BID, and MMF was orally administered at 60 mg/kg, QD, starting at the age of 12 weeks. The vertical axis indicates the survival rate and the horizontal axis indicates the period. Both of the Vehicle group and the compound of Example 44 administration group was at N=20, and the MMF administration group was at N=15. The surviving days was analyzed by the Kaplan-Meier method, and the group in which the p-value was 0.001 or less compared to the Vehicle group by the log rank test is shown by ***.
Effect of Compound of Example 44 in NZB/W F1 Mice that Naturally Develop SLE-Like Symptoms and Nephritis
To NZB/W F1 mice that naturally develop SLE-like symptoms and nephritis, test substance was forcibly orally administered (0.2 mL/mouse) twice daily with a feeding needle, starting at the age of 12 weeks. The compound of Example 44 was orally administered at 30, 100 mg/kg, BID, and MMF was orally administered at 60 mg/kg, QD. […] Mice were observed daily, and those that reached a dying state such as weight loss and dyspnea were euthanized, and the survival rate was evaluated. The number of survival days was analyzed by the Kaplan-Meier method and the log rank test was performed. […]

| Compound | AUC(0-t) [1] [ng·h/mL] | IC50 [2] [nM] | IC50 [3] [nM] | effect on IFN-α production [3] | effective dose, suppression of IFN-γ in plasma [4] | survival until the end of the experiment (age of 44 weeks) [5] |
| --- | --- | --- | --- | --- | --- | --- |
| N[C@@H](Cc1cccc(S(=O)(=O)N2CC(Oc3ccc(F)cc3)(c3ccccc3)C2)c1)C(=O)O [Example 41, (S)-2-Amino-3-(3-((3-(4-fluorophenoxy)-3-phenylazetidin-1-yl)sulfonyl)phenyl)propanoic acid] | 728 | 5.1 | 21 | concentration-dependent suppression effects |  |  |
| N[C@@H](Cc1cccc(S(=O)(=O)N2CC(Oc3cccc(F)c3)(c3ccccc3)C2)c1)C(=O)O [Example 42, (S)-2-Amino-3-(3-((3-(3-fluorophenoxy)-3-phenylazetidin-1-yl)sulfonyl)phenyl)propanoic acid] | 499 | 4.1 | 13 | concentration-dependent suppression effects |  |  |
| CC(OC(=O)N[C@@H](Cc1cccc(S(=O)(=O)N2CC(Oc3ccc(F)cc3)(c3ccccc3)C2)c1)C(=O)O)OC(=O)C(C)(C)C (stereo partly drawn) [Example 44, (2S)-3-(3-((3-(4-Fluorophenoxy)-3-phenylazetidin-1-yl)sulfonyl)phenyl)-2-(((1-(pivaloyloxy)ethoxy)carbonyl)amino)propanoic acid] |  |  |  |  | ≥ 10 mg/kg, BID | no death was observed |
| COc1c(C)c2c(c(O)c1C/C=C(\C)CCC(=O)OCCN1CCOCC1)C(=O)OC2 [MMF, mycophenolate mofetil, reference compound] |  |  |  |  |  | no death was observed |
